Where two headings read alike, the source gives them in different places. Where a SMILES comes first, the peptide text is derived from it. [ ]: non-standard residue; d: D form. Tpi = O=C(O)[C@@H]1Cc2c([nH]c3ccccc23)CN1; dTpi = O=C(O)[C@H]1Cc2c([nH]c3ccccc23)CN1 A value given as a limit tells only on which side of the number the result lay.

The text below walks through data of patent US4839465A, “Di-(D-tryptophyl and/or tetrahydropyridoindolylcarbonyl)-containing peptide amides and process for preparation thereof” (Sterling Drug Inc., priority 1987, dated 1989).

For assay [1], the system named is Substance P effect in isolated guinea pig ileum longitudinal muscle. Briefly: Guinea pig ileum test, Substance P agonist and antagonist effect. The format is cell-based. The protocol: Strips of longitudinal muscle (derived from terminal ileum of adult male guinea pigs (Charles River, 400-600 g.) are mounted in 5-ml. organ baths containing oxygenated Krebs solution containing 1 μM each of atropine and pyrilamine maintained at 30°-33° C. and connected to isometric transducers. Following tissue equilibration and repeated washing (45-60 min.), SP or an appropriate reference agonist is added cumulatively to the bath and contractions of the tissue are recorded. The bath is washed thoroughly and 30-45 min. is allowed to elapse before construction of a second reference agonist curve to assure reproducibility of the responses. Test compounds are similarly evaluated for agonist activity up to a maximum concentration of 10-100 μM. Regression analysis of the linear portion of the log concentration-percent maximal response curves provides the EC50 (and 95% confidence limits), the standard measure of agonist potency. When appropriate, relative molar potency ratios are calculated (EC50 reference/ED50 test drug). Antagonist activity is examined by pretreating thoroughly washed tissues with test compound (using a standard 5-10 min. contact time), then constructing a cumulative dose-response curve to the reference agonist. The effects of several concentrations of test antagonist, pooled across separate experiments, provide dose-ratio (EC50 shift) data for a standard Schild plot analysis, with computation of the pA2.

Assay [2] addresses T1, SP receptor (rat brain tissue) (Rattus norvegicus, UniProt P14600).
T1 construct: from tissue; host or cells: crude rat brain tissue
Briefly: Rat brain tissue 3H-SP competitive binding. Conditions: for Kd: crude rat brain tissue, 3H-SP, read-out: Substance P Competitive Binding KD; for effect on 3H-SP binding: specificity and sensitivity of the binding assay, rat brain tissue. As to the method: Crude rat brain tissue is suspended in buffer containing protease inhibitors and calcium ions and magnesium ions and incubated under nitrogen atmosphere with ^3 H-SP and test compound. The bound SP is then separated from free SP by filtration and quantitated by liquid scintillation spectroscopy. This test meets the criteria of reversibility,saturability, sensitivity to known SP agonists and antagonists, and specificity for an SP receptor binding assay.
With regard to reversibility, addition of unlabelled SP causes a gradual decrease in bound ^3 H-SP, showing that SP is not irreversibly bound to the receptors in the tissue. With regard to saturability, the amount of bound ^3 H-SP in the preparation increases in direct proportion to the concentration of ^3 H-SP added until a saturation point is reached. […] With regard to sensitivity, known SP agonists and antagonists inhibit ^3 H-SP binding.
The results are expressed in terms of the equilibrium constant KD in nanomoles per liter (nM), which takes into account the concentration of ^3 H-SP.

In assay [3] the test system is acetylcholine-induced writhing. Briefly: Mouse acetylcholine-induced writhing test. Format: in vivo. Conditions: intrathecal, acetylcholine 3.2 mg./kg. i.p. five minutes after injection. As to the method:
Male Swiss-Webster mice (18-24 g.) are divided into groups of 8-15 mice. A test compound in a vehicle or the vehicle alone is administered intrathecally in a volume of 5 μl by the method of Hylden and Wilcox (European Journal of Pharmacology, vol. 67, pp. 313-316, 1980) except that caudal cutaneous incision is not performed prior to injection. Five minutes after the injection a solution of acetylcholine (3.2 mg./kg., the approximate ED90) in 0.9% aqueous sodium chloride is administered intraperitoneally to each mouse. […] For test compounds which produce a graded dose-response ED50 values with 95% confidence limits are determined by probit analysis of the data.

The next assay has as its system gastric juice secretion. Conditions: in vivo; cited from earlier work.
[4] abbreviates: Schild plot, 5-10 min. contact time, guinea pig ileum longitudinal muscle.

T1 sequence (P14600 whole entry): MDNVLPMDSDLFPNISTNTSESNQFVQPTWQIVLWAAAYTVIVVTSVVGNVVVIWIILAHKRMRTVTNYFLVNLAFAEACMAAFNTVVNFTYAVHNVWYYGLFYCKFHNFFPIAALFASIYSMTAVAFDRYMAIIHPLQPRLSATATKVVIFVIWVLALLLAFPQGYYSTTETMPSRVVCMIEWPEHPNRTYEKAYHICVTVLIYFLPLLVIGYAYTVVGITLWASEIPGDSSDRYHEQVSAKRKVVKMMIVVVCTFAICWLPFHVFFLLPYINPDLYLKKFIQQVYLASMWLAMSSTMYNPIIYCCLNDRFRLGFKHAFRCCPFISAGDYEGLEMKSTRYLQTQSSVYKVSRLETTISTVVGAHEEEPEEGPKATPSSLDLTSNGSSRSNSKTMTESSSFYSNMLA

Take `CSCC[C@H](NC(=O)[C@H](CC(C)C)NC(=O)[C@@H](Cc1c[nH]c2ccccc12)NC(=O)[C@H](Cc1ccccc1)NC(=O)[C@H](N)Cc1c[nH]c2ccccc12)C(N)=O` [Example 1, H--trp--Phe--trp--Leu--Met--NH2] (H-[dW]F[dW]LM-NH2): the EC50 in assay [1] is > 1000 nM. For the same molecule, the “Substance P agonist activity” value in assay [1] (guinea pig ileum, not quantified) was “Some agonist activity was noted”.
Regarding `CC(C)C[C@H](NC(=O)[C@@H](Cc1c[nH]c2ccccc12)NC(=O)[C@H](Cc1ccccc1)NC(=O)[C@@H](Cc1c[nH]c2ccccc12)NC(=O)[C@@H]1CCCN1)C(=O)N[C@@H](Cc1ccccc1)C(N)=O` [Example 2, H--Pro--trp--Phe--trp--Leu--Phe--NH2] (H-P[dW]F[dW]LF-NH2), in assay [2], the Kd worked out at 22 nM. Further, the “Substance P Antagonist pA2” value in assay [1] (setting [4]) turned out to be 6.4.
On the same counts, the results for `CC(C)C[C@H](NC(=O)[C@@H](Cc1c[nH]c2ccccc12)NC(=O)[C@H](Cc1ccccc1)NC(=O)[C@@H](Cc1c[nH]c2ccccc12)NC(=O)[C@@H]1CCCN1)C(N)=O` [Example 3, H--Pro--trp--Phe--trp--Leu--NH2] (H-P[dW]F[dW]L-NH2) are 35 nM and 5.1.
As to `CSCC[C@H](NC(=O)[C@H](CC(C)C)NC(=O)[C@@H](Cc1c[nH]c2ccccc12)NC(=O)[C@H](Cc1ccccc1)NC(=O)[C@H]1Cc2c([nH]c3ccccc23)CN1)C(N)=O` [Example 4, H--tpi--Phe--trp--Leu--Met--NH2] (H-[dTpi]F[dW]LM-NH2), the dissociation constant (Kd) in assay [2] was determined as 42 nM. Moreover, the “Substance P Antagonist pA2” value in assay [1] (setting [4]) is reported as 6.4. Moreover, in assay [3], the “ED50, protection against acetylcholine-induced writhing” value came out at 0.7 μg/mouse.
As to `CSCC[C@H](NC(=O)[C@H](CC(C)C)NC(=O)[C@@H](Cc1c[nH]c2ccccc12)NC(=O)[C@H](Cc1ccccc1)NC(=O)[C@@H]1Cc2c([nH]c3ccccc23)CN1)C(N)=O` [Example 5, H--Tpi--Phe--trp--Leu--Met--NH2] (H-[Tpi]F[dW]LM-NH2), the Kd in assay [2] stood at 59 nM.
With `CC(C)C[C@H](NC(=O)[C@H]1Cc2c([nH]c3ccccc23)CN1C(=O)[C@H](Cc1ccccc1)NC(=O)[C@@H](Cc1c[nH]c2ccccc12)NC(=O)[C@@H]1CCCN1)C(=O)N[C@@H](Cc1ccccc1)C(N)=O` [Example 6, H--Pro--trp--Phe--tpi--Leu--Phe--NH2] (H-P[dW]F[dTpi]LF-NH2), in assay [2], the Kd was found to be 39 nM. Further, the “Substance P Antagonist pA2” value in assay [1] (setting [4]) is recorded as 6.4.
On to `CC(C)C[C@H](NC(=O)[C@@H](Cc1c[nH]c2ccccc12)NC(=O)[C@H](Cc1ccccc1)NC(=O)[C@H](N)Cc1c[nH]c2ccccc12)C(=O)N[C@@H](Cc1ccccc1)C(N)=O` [Example 8, H--trp--Phe--trp--Leu--Phe--NH2] (H-[dW]F[dW]LF-NH2), for which the “Substance P Antagonist pA2” value in assay [1] was 6.28.
For the molecule `CC(C)C[C@H](NC(=O)[C@@H](Cc1c[nH]c2ccccc12)NC(=O)[C@H](Cc1ccccc1)NC(=O)[C@H]1Cc2c([nH]c3ccccc23)CN1)C(=O)N[C@@H](Cc1ccccc1)C(N)=O` [Example 9, H--tpi--Phe--trp--Leu--Phe--NH2] (H-[dTpi]F[dW]LF-NH2), the “Substance P Antagonist pA2” value in assay [1] turned out to be 6.65.
In the case of `NCC(CC(=O)O)c1ccc(Cl)cc1` (stereo not drawn) [baclofen, reference compound], in assay [2], the “effect on 3H-SP binding” value was “do not affect”.
Consider `COc1cc(CNC(=O)CCCC/C=C/C(C)C)ccc1O` [capsaicin, reference compound], for which the “effect on 3H-SP binding” value in assay [2] is “do not affect”.
Turning to “H--Tpi--Bpa--trp--Leu--Phe--NH2 H--Tpi--bpa--trp--Leu--Phe--NH2 (mixture of isomers) [Example 7, H--Tpi--Bpa--trp--Leu--Phe--NH2 H--Tpi--bpa--trp--Leu--Phe--NH2 (mixture of isomers)]”, the “Substance P Antagonist pA2” value in assay [1] (setting [4]) is recorded as 6.25.
Regarding “Z--Tca--Met--Asp--Phe--NH2 [Tca-tetragastrin]”, the “gastric juice stimulating activity” value in the assay with gastric juice secretion is “having gastric juice stimulating activity”.
